The target of one assay is Fms kinase (Homo sapiens, UniProt P07333). As to the kind of experiment: Fms kinase biochemical activity assay (AlphaScreen, biotin-(E4Y)10 phosphorylation). As to conditions: 100 μM ATP; read-out: Biochemical Inhibition IC50 Fms. Summed up:
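Fms kinase (1 ng/well) phosphorylating 30 nM biotin-(E4Y)10 with 100 μM ATP in 25 mM Hepes pH 7.5, MgCl2/MnCl2, 5% DMSO, 20 min at 30 °C. Phosphotyrosine detected by AlphaScreen streptavidin donor and PY20 acceptor beads; IC50 from signal versus compound concentration.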
In general terms: Bead proximity is the source of the signal in Alpha formats.

The target in the next assay is CYP2D6 (Homo sapiens, UniProt P10635). As to the kind of experiment: CYP2D6 inhibition (fluorescent substrate AMMC). The class given is in vitro ADME. Conditions: read-out: Cyp IC50 2D6. Summed up:
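Test compounds, 10-point 1:1 serial dilutions in NADPH-regenerating cofactor mix, were preincubated 10 min at 37° C before recombinant enzyme and fluorogenic substrate reactions at 37° C (CYP1A2 15 min; CYP2C9 45 min; CYP2C19, 2D6 30 min). Product fluorescence was read at 409 ex with 460 em (1A2, 2C19) or 530 em (2C9, 2D6), and IC50 fitted from signal versus concentration.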

Chain of CYP2D6 (P10635 whole entry): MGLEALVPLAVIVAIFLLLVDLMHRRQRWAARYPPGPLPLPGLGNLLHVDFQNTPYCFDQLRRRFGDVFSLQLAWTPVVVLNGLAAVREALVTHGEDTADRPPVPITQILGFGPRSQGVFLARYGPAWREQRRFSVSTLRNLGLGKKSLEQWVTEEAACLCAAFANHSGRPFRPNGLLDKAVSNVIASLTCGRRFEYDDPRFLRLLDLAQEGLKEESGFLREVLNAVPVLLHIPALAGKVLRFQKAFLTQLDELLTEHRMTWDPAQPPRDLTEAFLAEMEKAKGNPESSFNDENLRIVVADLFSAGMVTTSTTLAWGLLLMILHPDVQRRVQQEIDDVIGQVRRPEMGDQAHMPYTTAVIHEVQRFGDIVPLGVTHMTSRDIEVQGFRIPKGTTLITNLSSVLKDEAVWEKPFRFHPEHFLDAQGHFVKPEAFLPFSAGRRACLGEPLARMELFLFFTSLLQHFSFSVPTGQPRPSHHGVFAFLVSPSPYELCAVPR
Chain of Fms kinase (P07333 20-972): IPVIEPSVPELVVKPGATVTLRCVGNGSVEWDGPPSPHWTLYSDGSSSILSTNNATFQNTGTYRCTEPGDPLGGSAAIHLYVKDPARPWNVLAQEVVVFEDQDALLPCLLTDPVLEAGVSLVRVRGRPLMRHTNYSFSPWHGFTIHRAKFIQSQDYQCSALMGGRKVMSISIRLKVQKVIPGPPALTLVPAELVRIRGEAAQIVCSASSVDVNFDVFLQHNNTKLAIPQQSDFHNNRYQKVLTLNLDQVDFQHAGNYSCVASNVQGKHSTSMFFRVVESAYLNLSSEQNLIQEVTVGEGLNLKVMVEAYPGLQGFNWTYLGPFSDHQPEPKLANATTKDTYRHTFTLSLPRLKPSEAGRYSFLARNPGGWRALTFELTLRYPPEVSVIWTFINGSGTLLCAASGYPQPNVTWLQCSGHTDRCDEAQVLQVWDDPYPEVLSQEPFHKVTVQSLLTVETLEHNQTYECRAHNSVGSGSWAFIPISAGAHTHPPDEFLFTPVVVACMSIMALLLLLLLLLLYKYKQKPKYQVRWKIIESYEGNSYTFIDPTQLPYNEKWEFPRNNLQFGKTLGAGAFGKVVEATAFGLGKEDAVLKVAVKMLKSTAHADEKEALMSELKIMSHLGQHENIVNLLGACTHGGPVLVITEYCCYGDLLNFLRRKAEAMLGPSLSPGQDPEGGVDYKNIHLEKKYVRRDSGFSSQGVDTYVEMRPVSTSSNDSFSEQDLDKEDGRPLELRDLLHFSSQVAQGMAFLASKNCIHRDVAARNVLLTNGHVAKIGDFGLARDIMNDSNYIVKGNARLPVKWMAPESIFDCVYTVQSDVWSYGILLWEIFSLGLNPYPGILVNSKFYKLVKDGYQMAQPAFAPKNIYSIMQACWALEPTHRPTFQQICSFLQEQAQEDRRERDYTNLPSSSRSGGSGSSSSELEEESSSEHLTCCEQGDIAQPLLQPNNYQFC

`CCc1ccc(Nc2ccc(Cc3c[nH]c4ncnc(C)c34)c(F)n2)cn1` [Compound P-4009, (6-Ethyl-pyridin-3-yl)-[6-fluoro-5-(4-methyl-7H-pyrrolo[2,3-d]pyrimidin-5-ylmethyl)-pyridin-2-yl]-amine]: the values for the IC50 on Fms kinase and on CYP2D6 were less than 0.01 µM and greater than 10 µM, respectively.

For the compound `COc1ncnc2[nH]cc(Cc3ccc(Nc4ccc(C)nc4)nc3F)c12` [Compound P-4010, [6-Fluoro-5-(4-methoxy-7H-pyrrolo[2,3-d]pyrimidin-5-ylmethyl)-pyridin-2-yl]-(6-methyl-pyridin-3-yl)-amine], the concentration for half-maximal inhibition (IC50) (as a rule, the concentration that inhibits the measured activity by half) is less than 0.01 µM at Fms kinase and greater than 10 µM at CYP2D6.

Turning to `CCn1cc(Nc2ccc(Cc3c[nH]c4ncnc(OC)c34)c(F)n2)cn1` [Compound P-4011, (1-Ethyl-1H-pyrazol-4-yl)-[6-fluoro-5-(4-methoxy-7H-pyrrolo[2,3-d]pyrimidin-5-ylmethyl)-pyridin-2-yl]-amine], the figures for the IC50 on Fms kinase and on CYP2D6 were less than 0.01 µM and greater than 10 µM, respectively.

Turning to `CCOc1ncnc2[nH]cc(Cc3ccc(Nc4cnn(CC)c4)nc3F)c12` [Compound P-4012, [5-(4-Ethoxy-7H-pyrrolo[2,3-d]pyrimidin-5-ylmethyl)-6-fluoro-pyridin-2-yl]-(1-ethyl-1H-pyrazol-4-yl)-amine], the IC50 at Fms kinase was less than 0.01 µM; on CYP2D6, greater than 10 µM.

Take `CCn1cc(Nc2ccc(Cc3c[nH]c4ncnc(C)c34)c(F)n2)cn1` [Compound P-4013, (1-Ethyl-1H-pyrazol-4-yl)-[6-fluoro-5-(4-methyl-7H-pyrrolo[2,3-d]pyrimidin-5-ylmethyl)-pyridin-2-yl]-amine]: the IC50 at Fms kinase is less than 0.01 µM; on CYP2D6, greater than 10 µM.

With `CCn1cc(Nc2ccc(Cc3c[nH]c4ncnc(OCCOC)c34)c(F)n2)cn1` [Compound P-4014, (1-Ethyl-1H-pyrazol-4-yl)-{6-fluoro-5-[4-(2-methoxy-ethoxy)-7H-pyrrolo[2,3-d]pyrimidin-5-ylmethyl]-pyridin-2-yl}-amine], the IC50 is less than 0.01 µM at Fms kinase and less than 5 µM on CYP2D6.

Take `COCCOc1ncnc2[nH]cc(Cc3ccc(Nc4ccc(C)nc4)nc3F)c12` [Compound P-4015, {6-Fluoro-5-[4-(2-methoxy-ethoxy)-7H-pyrrolo[2,3-d]pyrimidin-5-ylmethyl]-pyridin-2-yl}-(6-methyl-pyridin-3-yl)-amine]: the 50% inhibitory concentration (IC50) at Fms kinase was less than 0.1 µM; on CYP2D6, greater than 10 µM.

As for `CCc1ccc(Nc2ccc(Cc3c[nH]c4ncnc(OCCOC)c34)c(F)n2)cn1` [Compound P-4016, (6-Ethyl-pyridin-3-yl)-{6-fluoro-5-[4-(2-methoxy-ethoxy)-7H-pyrrolo[2,3-d]pyrimidin-5-ylmethyl]-pyridin-2-yl}-amine], the IC50 on Fms kinase is less than 0.01 µM; at CYP2D6, greater than 10 µM.

Take `CCOc1ncnc2[nH]cc(Cc3ccc(Nc4ccc(C)nc4)nc3F)c12` [Compound P-4017, [5-(4-Ethoxy-7H-pyrrolo[2,3-d]pyrimidin-5-ylmethyl)-6-fluoro-pyridin-2-yl]-(6-methyl-pyridin-3-yl)-amine]: the concentration for half-maximal inhibition (IC50) is less than 0.01 µM at Fms kinase and greater than 10 µM on CYP2D6.

For the compound `CCOc1ncnc2[nH]cc(Cc3ccc(Nc4ccc(OC)nc4)nc3F)c12` [Compound P-4018, [5-(4-Ethoxy-7H-pyrrolo[2,3-d]pyrimidin-5-ylmethyl)-6-fluoro-pyridin-2-yl]-(6-methoxy-pyridin-3-yl)-amine], the half-inhibitory concentration (IC50) is less than 0.01 µM at Fms kinase and greater than 10 µM at CYP2D6.

`COCCOc1ncnc2[nH]cc(Cc3ccc(Nc4ccc(OC)nc4)nc3F)c12` [Compound P-4019, {6-Fluoro-5-[4-(2-methoxy-ethoxy)-7H-pyrrolo[2,3-d]pyrimidin-5-ylmethyl]-pyridin-2-yl}-(6-methoxy-pyridin-3-yl)-amine]: the IC50 on Fms kinase was less than 0.01 µM; on CYP2D6 it was greater than 10 µM.

For `COc1ccc(Nc2ccc(C(=O)c3c[nH]c4ncnc(C5CC5)c34)c(F)n2)cn1` [Compound P-4022, (4-cyclopropyl-7H-pyrrolo[2,3-d]pyrimidin-5-yl)-[2-fluoro-6-(6-methoxy-pyridin-3-ylamino)-pyridin-3-yl]-methanone], the IC50 was less than 0.1 µM on Fms kinase and 5 to 10 µM at CYP2D6.

With `COc1ccc(Nc2ccc(Cc3c[nH]c4ncnc(C5CC5)c34)c(F)n2)cn1` [Compound P-4023, [5-(4-cyclopropyl-7H-pyrrolo[2,3-d]pyrimidin-5-ylmethyl)-6-fluoro-pyridin-2-yl]-(6-methoxy-pyridin-3-yl)-amine], the concentration for half-maximal inhibition (IC50) was less than 0.01 µM on Fms kinase and 5 to 10 µM at CYP2D6.

Take `CCOc1ccc(Nc2ccc(C(=O)c3c[nH]c4ncnc(OC)c34)c(F)n2)cn1` [Compound P-4024, [6-(6-Ethoxy-pyridin-3-ylamino)-2-fluoro-pyridin-3-yl]-(4-methoxy-7H-pyrrolo[2,3-d]pyrimidin-5-yl)-methanone]: the IC50 on Fms kinase was less than 1 µM; at CYP2D6, greater than 10 µM.

Turning to `CCOc1ncnc2[nH]cc(C(=O)c3ccc(Nc4ccc(OC)nc4)nc3F)c12` [Compound P-4025, (4-Ethoxy-7H-pyrrolo[2,3-d]pyrimidin-5-yl)-[2-fluoro-6-(6-methoxy-pyridin-3-ylamino)-pyridin-3-yl]-methanone], the results for the IC50 on Fms kinase and on CYP2D6 were less than 1 µM and greater than 10 µM, respectively.

Consider `CCc1ccc(Nc2ccc(Cc3c[nH]c4ncnc(C5CC5)c34)c(F)n2)cn1` [Compound P-4028, [5-(4-Cyclopropyl-7H-pyrrolo[2,3-d]pyrimidin-5-ylmethyl)-6-fluoro-pyridin-2-yl]-(6-ethyl-pyridin-3-yl)-amine], for which the IC50 on Fms kinase was less than 0.01 µM; at CYP2D6, greater than 10 µM.

Regarding `CCc1ccc(Nc2ccc(C(=O)c3c[nH]c4ncnc(C5CC5)c34)c(F)n2)cn1` [Compound P-4029, (4-Cyclopropyl-7H-pyrrolo[2,3-d]pyrimidin-5-yl)-[6-(6-ethyl-pyridin-3-ylamino)-2-fluoro-pyridin-3-yl]-methanone], the figures for the IC50 on Fms kinase and at CYP2D6 were less than 0.01 µM and greater than 10 µM, respectively.

Consider `Cc1ccc(Nc2ccc(Cc3c[nH]c4ncnc(C5CC5)c34)c(F)n2)cn1` [Compound P-4030, [5-(4-Cyclopropyl-7H-pyrrolo[2,3-d]pyrimidin-5-ylmethyl)-6-fluoro-pyridin-2-yl]-(6-methyl-pyridin-3-yl)-amine], for which the IC50 at Fms kinase is less than 0.01 µM; on CYP2D6, greater than 10 µM.

In the case of `Cc1ccc(Nc2ccc(C(=O)c3c[nH]c4ncnc(C5CC5)c34)c(F)n2)cn1` [Compound P-4031, (4-Cyclopropyl-7H-pyrrolo[2,3-d]pyrimidin-5-yl)-[2-fluoro-6-(6-methyl-pyridin-3-ylamino)-pyridin-3-yl]-methanone], the IC50 is less than 0.1 µM at Fms kinase and less than 5 µM on CYP2D6.

Turning to `CCn1cc(Nc2ccc(Cc3c[nH]c4ncnc(C5CC5)c34)c(F)n2)cn1` [Compound P-4036, [5-(4-Cyclopropyl-7H-pyrrolo[2,3-d]pyrimidin-5-ylmethyl)-6-fluoro-pyridin-2-yl]-(1-ethyl-1H-pyrazol-4-yl)-amine], the values for the IC50 at Fms kinase and at CYP2D6 were less than 0.01 µM and greater than 10 µM, respectively.

As to `CCn1cc(Nc2ccc(C(=O)c3c[nH]c4ncnc(C5CC5)c34)c(F)n2)cn1` [Compound P-4037, (4-Cyclopropyl-7H-pyrrolo[2,3-d]pyrimidin-5-yl)-[6-(1-ethyl-1H-pyrazol-4-ylamino)-2-fluoro-pyridin-3-yl]-methanone], the values for the half-inhibitory concentration (IC50) at Fms kinase and at CYP2D6 were less than 0.1 µM and greater than 10 µM, respectively.

Turning to `Fc1nc(NC2CCC(F)(F)CC2)ccc1Cc1c[nH]c2ncnc(NCC(F)(F)F)c12` [Compound P-4128, 5-[[6-[(4,4-difluorocyclohexyl)amino]-2-fluoro-3-pyridyl]methyl]-N-(2,2,2-trifluoroethyl)-7H-pyrrolo[2,3-d]pyrimidin-4-amine], the IC50 on Fms kinase was less than 0.1 µM; at CYP2D6, greater than 10 µM.

On to `Fc1nc(NC2CCC(F)(F)CC2)ccc1Cc1c[nH]c2ncnc(NC3CC3)c12` [Compound P-4129, N-cyclopropyl-5-[[6-[(4,4-difluorocyclohexyl)amino]-2-fluoro-3-pyridyl]methyl]-7H-pyrrolo[2,3-d]pyrimidin-4-amine], for which the figures for the IC50 at Fms kinase and at CYP2D6 were less than 0.1 µM and 5 to 10 µM, respectively.

`Fc1nc(Nc2ccc(C3CC3)nc2)ccc1Cc1c[nH]c2ncnc(NCC(F)(F)F)c12` [Compound P-4130, 5-[[6-[(6-cyclopropyl-3-pyridyl)amino]-2-fluoro-3-pyridyl]methyl]-N-(2,2,2-trifluoroethyl)-7H-pyrrolo[2,3-d]pyrimidin-4-amine]: the IC50 at Fms kinase is less than 0.01 µM; on CYP2D6, greater than 10 µM.

The record behind these values is patent US8901118B2, “Compounds and methods for kinase modulation, and indications therefor” (Plexxikon Inc., priority 2010, dated 2014).
